The nature of assay [1]: Anti-oxidation activity (rhodan-iron method) using linoleic acid, suppression of auto-oxidation. The assay is classed as biochemical. As to conditions: for Absorbance, auto-oxidation of linoleic acid: specimen 0.02% (W/W). On the procedure:
Linoleic acid is unsaturated fatty acid that is contained richly also in human body. The unsaturated fatty acid is characterized by being auto-oxidized when it is allowed to stand, so as to be lipid peroxide. In this experiment, linoleic acid is mixed with a sample, the mixture is allowed to stand at 40° C., and then antioxidative activities are evaluated based on increases in the amounts of lipid oxides purified from linoleic acid. […] The resulting mixture was put into a brown screw cap bottle, so that 10 ml of a reaction solution was prepared. When a specimen was a water-insoluble component, the specimen was dissolved in the above 99.5% ethanol, so that a reaction solution was prepared. When a specimen was a water-soluble component, the specimen was dissolved in the above distilled water, so that a reaction solution was prepared. In addition, in this test method, the term “specimen concentration” indicates a specimen concentration in 2 ml of 99.5% ethanol or 2 ml of distilled water. Therefore, the final concentration of each specimen in each reaction solution was one fifth of the predetermined concentration. Furthermore, regarding specimens positive for antioxidative activities, similar procedures were performed for BHA so that it is contained in appropriate amounts in reaction solutions. Positive control specimens were thus prepared. A control used herein was prepared by adding 2 ml of 99.5% ethanol and 2 ml of distilled water alone to the reaction solution. Such reaction solution stored in the dark at 40° C. was used for the main test and such reaction solution stored at 4° C. was used for a blank test. Test substances were sampled with time and then measured as described below. Tests were conducted for 2 or more weeks. 0.1 ml of 2×10^2M ferrous chloride (3.5% hydrochloric acid solution) was added to the mixture of 0.1 ml of a test substance, 9.7 ml of 75% ethanol, and 0.1 ml of 30% ammonium rhodanate aqueous solution. At precisely 3 minutes after addition, absorbance was measured at 500 nm. Absorbance was similarly measured in a blank test: Δ absorbance=[absorbance in main test]−[absorbance in blank test]. The higher the absorbance, the higher the amount of oxidized lipids. […] Furthermore, when oxidation of a sample is initiated, the absorbance increases. After the absorbance reaches a peak, the absorbance decreases as the amount of a sample to be oxidized decreases. It can be said that the sooner the absorbance reaches a peak, the weaker the anti-oxidation activity. Furthermore, anti-oxidation activities of the samples were compared in terms of oxidation ratio (%). Oxidation ratio (%) was obtained by the following formula using the oxidation (absorbance) of the control as 100%. Oxidation ratio (%)=([Δ absorbance of sample]/[Δ absorbance of control])×100 [Formula 1] It can be said that the higher the oxidation ratio (%), the lower the anti-oxidation activity.

Assay [2] in a line: DPPH radical scavenging activity test (Test method 1.2). The assay is classed as biochemical. As to conditions: Table 7. On the procedure: Antioxidative activities were evaluated using an ethanol solution of diphenyl-p-picrylhydradil (DPPH), which is a stable radical. 1200 μl of ethanol and 400 μl of a specimen (adjusted to any concentration) were mixed with 1600 μl of a 250 mM acetate buffer (pH=5.5), followed by preincubation at 30° C. for 5 minutes. 800 μl of a 500 μM DPPH/ethanol solution was added to the solution and mixed therewith, and the resultant was then allowed to stand at 30° C. for 30 minutes. Absorbance was measured at 517 nm. A similar procedure was performed also for α-tocopherol and then the result was used as a positive control. The control used herein was prepared by performing a similar procedure using a solvent instead of a sample solution. Radical scavenging ratio was calculated by the following equation using the thus measured absorbances.
Scavenging ratio (%)=(1−[absorbance of sample]/[absorbance of control])×100
The above measurement for finding scavenging ratios was performed by varying stepwise the concentration of a sample in a solution. The concentration of a sample solution leading to a 50% DPPH radical scavenging ratio was found and designated the concentration required for scavenging 50% of the DPPH radicals. Thus, it can be said that the lower the numerical value, the higher the radical scavenging ability.
On the technique in general: Loss of DPPH colour is used to gauge radical scavenging.

In the next assay the test system is tyrosinase. As to the kind of experiment: Effect of inhibiting tyrosinase (skin-whitening activity). The assay is classed as biochemical, mushroom. On the procedure: A test concerning activity of inhibiting tyrosinase, which is an enzyme that generates a melanin pigment, was conducted by the following procedure. • (1) *4 mL of an L-DOPA aqueous solution, **4 mL each of samples diluted at different concentrations, and 2 mL of a 0.2 M phosphate buffer (pH 6.8) were mixed. The mixture was heated in a thermostatic bath at 37° C. […] Changes in absorbance were automatically measured for over 20 seconds from the start to the end at intervals of 0.1 second. The rise velocity of absorbance between 4 seconds and 10 seconds after the start of measurement was calculated. *Tyrosinase solution: Solution obtained by dissolving tyrosinase (SIGMA) derived from a mushroom in a 0.2 M phosphate buffer (pH 6.8) at a concentration of 300 units/mL and then conducting filtering using a 0.2 μm filter • (3) To obtain a blank value, measurement was performed using a 0.2 M phosphate buffer instead of a sample and then tyrosinase-inhibiting activity was calculated by the equation below. Furthermore, a substance that could not be dissolved in a phosphate buffer was dissolved in dimethyl sulfoxide (DMSO), diluted with a phosphate buffer, and then measured. […]
Tyrosinase activity inhibition ratio (%)=100−((absorbance rise velocity of sample)/(absorbance rise velocity of blank))×100

Assay [3] deals with animal cells. As to conditions: cited from earlier work.
The test system of another assay is brown guinea pigs. As to the kind of experiment: Skin-whitening test: suppression of pigmentation after UV irradiation. The assay is classed as in vivo. As to conditions: oral, dose of ascorbic acid 300 mg/kg animal weight/day, 42 days; UVB on days 0, 2, 4; observed days 7 to 42. The protocol: The effect of suppressing pigmentation after UV irradiation was examined using brown guinea pigs (SPF). The brown guinea pigs are of an animal species that undergoes pigmentation because of UV irradiation in a manner similar to humans and of a line that has been clearly maintained. Six guinea pigs were used for each group in this test. To promote pigmentation, UV (UVB) irradiation was performed from a distance of 40 cm using five SE lamps (wavelength between 250 nm and 350 nm, […] Corporation) installed in an UV irradiation apparatus (Y-798-II, Orion Electric Co., Ltd.). […] This time was designated the time for UV irradiation in this test. Each irradiation site was a 2 cm×2 cm square area located on either the left or right across the midline of the back of a guinea pig that had been sheared using electric clippers and then shaved using an electric shaver. […] Pigmentation was measured as follows. Before the initial administration (before irradiation) on the day of the initiation of administration and on days 7, 14, 21, 28, 35, and 42 after initial administration, L value (lightness) of irradiated sites were measured using a colorimeter (CR-300, Minolta Co., Ltd.) and then the ΔL value (L value on the day of observation-L value before irradiation) was found. […]

The test system of assay [4] is animal cells. As to conditions: animal cell test; cited from earlier work.
The mark [5] stands for this setting: Experiment 1, 1 day of storage at 40° C.
Setting [6] is: Experiment 1, 4 days of storage at 40° C.
[7] abbreviates: Experiment 1, 5 days of storage at 40° C.
The mark [8] stands for this setting: Experiment 1, 8 days of storage at 40° C.
Where [9] appears, read: Experiment 1, 11 days of storage at 40° C.
[10] abbreviates: Experiment 1, 15 days of storage at 40° C.

Take 3(2)-t-Butyl-4-hydroxyanisole [BHA]: the “Absorbance, auto-oxidation of linoleic acid” value (“Absorbance, auto-oxidation” below) is recorded as 0.0000 in assay [1] (setting [5]); 0.0105 in assay [1] (setting [6]); 0.0111 in assay [1] (setting [7]); 0.0313 in assay [1] (setting [8]); 0.0559 in assay [1] (setting [9]); 0.0752 in assay [1] (setting [10]). Also, the “Absorbance, auto-oxidation” value in assay [1] (Experiment 2, 1 day of storage at 40° C.) is reported as 0.0001; in assay [1] (Experiment 2, 4 days of storage at 40° C.) it was 0.0088; in assay [1] (Experiment 2, 5 days of storage at 40° C.), 0.0121; in assay [1] (Experiment 2, 8 days of storage at 40° C.) it was 0.0269; in assay [1] (Experiment 2, 14 days of storage at 40° C.), 0.0609; in assay [1] (Experiment 2, 18 days of storage at 40° C.), 0.0866.

In the case of `OCC1OC2O[C@@H]3[C@@H](c4ccc(O)c(O)c4)Oc4cc(O)cc(O)c4[C@@H]3OC2C(O)C1O` (stereo partly shown) [Aceronidin], the “50% radical scavenging activity concentration” value in assay [2] amounted to 80 ppm. In addition, in the assay on tyrosinase, the “skin-whitening effect (effect of inhibiting tyrosinase), in words” value is given as “almost no skin-whitening effect (effect of inhibiting tyrosinase)”. The compound further came in with a Tyrosinase-inhibiting activity with tyrosinase (L-DOPA substrate, 37° C., sample concentration not given) of 3.1%.

With `O=C[C@H](O)[C@@H](O)[C@@H](O)[C@H](O)C(=O)O` [galacturonic acid], the “Effect of suppressing melanin pigment generation” value in the assay on animal cells [3] was “has not been confirmed”.

`O=C1O[C@H]([C@@H](O)CO)C(O)=C1O` [vitamin C, ascorbic acid]: the “Antioxidative activities for lipids (FIG. 15), in words” value in assay [1] (specimen concentration 0.02% (W/W)) and in assay [1] (specimen concentration 0.04% (W/W)) was “no antioxidative activities at all” in each case. Besides, the “ΔL value of UV-irradiated skin (pigmentation), FIG. 21, in words” value with brown guinea pigs is listed as “measurement values were almost the same”.

With (±)-α-Tocopherol, the “50% radical scavenging activity concentration” value in assay [2] came out at 127 ppm. The “Absorbance, auto-oxidation” value turned out to be 0.0195 in assay [1] (setting [5]); 0.0827 in assay [1] (setting [6]); 0.1014 in assay [1] (setting [7]); 0.1326 in assay [1] (setting [8]); 0.1551 in assay [1] (setting [9]); 0.1796 in assay [1] (setting [10]).

Regarding oligogalacturonic acid, the “Effect of suppressing melanin production” value with animal cells [4] is given as “exerted an effect of suppressing melanin production”.

Regarding polygalacturonic acid, the “Effect of suppressing melanin pigment generation” value with animal cells [3] was “has not been confirmed”.
